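Growth conditions: 96-well plates. Treatment: test compound, 48 hours, 5 concentrations. Analysis: linear interpolation between bracketing concentrations; unreached endpoints set to highest concentration. The concentration for 50% growth inhibition is given as GI50.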 The source made the active and inactive calls. Rule as the data show it: active = GI50 up to about 1.1 µM and inactive = higher.
Key:
Assay in all cases: NCI-60 cell line screen, 48 h
OVCAR-5 = tested on: OVCAR-5
SK-MEL-28 = tested on: SK-MEL-28
COLO 205 = tested on: COLO 205
Hs-578T = tested on: Hs-578T
U-251 = tested on: U-251
SNB-19 = tested on: SNB-19
ACHN = tested on: ACHN
TK-10 = tested on: TK-10
UO-31 = tested on: UO-31
SW-620 = tested on: SW-620
SNB-75 = tested on: SNB-75
HL-60 = tested on: HL-60
HOP-62 = tested on: HOP-62
SR = tested on: SR
OVCAR-3 = tested on: OVCAR-3
M14 = tested on: M14
UACC-62 = tested on: UACC-62
SF-295 = tested on: SF-295
HCC 2998 = tested on: HCC 2998
SF-539 = tested on: SF-539

Measured: GI50

OCC1CCCCCCCCCCC12SCCCS2 (stereo not given)
inactive: OVCAR-5 > 100 µM | SK-MEL-28 > 100 µM | COLO 205 > 100 µM | Hs-578T > 100 µM | U-251 > 100 µM | SNB-19 > 100 µM | ACHN > 100 µM | TK-10 > 100 µM | UO-31 > 100 µM | SW-620 > 100 µM | SNB-75 > 100 µM | HL-60 > 100 µM | HOP-62 > 100 µM | SR > 100 µM | OVCAR-3 > 100 µM | M14 > 100 µM | UACC-62 > 100 µM

Cc1nc(N2N=C(c3ccc(Cl)cc3)CCC2=O)sc1[N+](=O)[O-]
inactive: SF-295 > 100 µM | SK-MEL-28 > 100 µM | COLO 205 > 100 µM | HCC 2998 > 100 µM | U-251 > 100 µM | SNB-19 > 100 µM | ACHN > 100 µM | TK-10 > 100 µM | UO-31 > 100 µM | SW-620 > 100 µM | SF-539 > 100 µM | SNB-75 > 100 µM | HL-60 > 100 µM | HOP-62 > 100 µM | SR > 100 µM | OVCAR-3 > 100 µM | M14 > 100 µM | UACC-62 > 100 µM

COc1cc(-c2nccc3cc(OC)c(OC)cc23)ccc1O
inactive: OVCAR-5 34.9 µM | SF-295 25.6 µM | SK-MEL-28 > 100 µM | COLO 205 40.5 µM | HCC 2998 > 100 µM | U-251 70.6 µM | SNB-19 68.1 µM | ACHN 44.9 µM | TK-10 42 µM | UO-31 > 100 µM | SW-620 55.2 µM | SF-539 35.4 µM | SNB-75 75.7 µM | HL-60 17.7 µM | HOP-62 > 100 µM | SR 30.3 µM | OVCAR-3 49.3 µM | M14 45.9 µM | UACC-62 30 µM

COc1ccc(N2C(=O)C(=O)C3(CCCCC3)C2=O)c(OC)c1OC
inactive: OVCAR-5 > 100 µM | SF-295 > 100 µM | SK-MEL-28 > 100 µM | COLO 205 > 100 µM | Hs-578T > 100 µM | U-251 > 100 µM | SNB-19 > 100 µM | ACHN > 100 µM | TK-10 > 100 µM | UO-31 > 100 µM | SW-620 > 100 µM | SF-539 > 100 µM | SNB-75 > 100 µM | HL-60 > 100 µM | SR > 100 µM | OVCAR-3 > 100 µM | M14 > 100 µM | UACC-62 > 100 µM

CCOC(=O)c1nc2ccc(C(F)(F)F)cc2nc1Oc1ccc(OC)cc1
inactive: OVCAR-5 > 100 µM | SF-295 > 100 µM | SK-MEL-28 > 100 µM | COLO 205 > 100 µM | Hs-578T > 100 µM | U-251 > 100 µM | SNB-19 > 100 µM | ACHN > 100 µM | TK-10 > 100 µM | UO-31 > 100 µM | SW-620 > 100 µM | SF-539 > 100 µM | SNB-75 > 100 µM | HOP-62 > 100 µM | OVCAR-3 > 100 µM | M14 > 100 µM | UACC-62 > 100 µM

C/C(=N\Nc1ccccc1)c1sc(-c2nc(C)c(/C(C)=N/Nc3ccccc3)s2)nc1C
inactive: OVCAR-5 51.3 µM | SF-295 9.98 µM | SK-MEL-28 > 48.2 µM | COLO 205 8.24 µM | HCC 2998 7.93 µM | U-251 37.1 µM | SNB-19 > 63.1 µM | ACHN 10.4 µM | TK-10 80.9 µM | UO-31 8.83 µM | SW-620 13.8 µM | SF-539 16.1 µM | SNB-75 23.4 µM | HL-60 31.8 µM | SR 25.6 µM | OVCAR-3 23.6 µM | M14 7.71 µM | UACC-62 4.07 µM

CCOC(=O)c1nnsc1NC(=O)NN
inactive: OVCAR-5 > 100 µM | SF-295 > 100 µM | SK-MEL-28 > 100 µM | COLO 205 > 100 µM | Hs-578T > 100 µM | HCC 2998 > 100 µM | U-251 > 100 µM | SNB-19 > 100 µM | ACHN > 100 µM | TK-10 > 100 µM | UO-31 > 100 µM | SW-620 > 100 µM | SF-539 > 100 µM | SNB-75 > 100 µM | HL-60 > 100 µM | HOP-62 > 100 µM | OVCAR-3 > 100 µM | M14 > 100 µM | UACC-62 > 100 µM

NCC(Cc1ccccc1)P(=O)(O)O (stereo not given)
inactive: OVCAR-5 > 100 µM | SF-295 > 100 µM | SK-MEL-28 > 100 µM | COLO 205 > 100 µM | Hs-578T > 100 µM | HCC 2998 > 100 µM | U-251 > 100 µM | SNB-19 > 100 µM | ACHN > 100 µM | TK-10 > 100 µM | UO-31 > 100 µM | SW-620 > 100 µM | SF-539 > 100 µM | SNB-75 > 100 µM | HL-60 > 100 µM | HOP-62 > 100 µM | OVCAR-3 > 100 µM | M14 > 100 µM | UACC-62 > 100 µM
